The text below walks through data of patent publication US20250339443A1, “METHOD FOR TREATING OR PREVENTING CALCIUM RELEASE-ACTIVATED CALCIUM CHANNEL OR DISCOIDIN DOMAIN RECEPTOR 2 RELATED DISORDERS OR CONDITIONS” (LumiSTAR Biotechnology, Inc., priority 2023, published 2025).

One assay deals with NRK49F cells. Put plainly: TGF-β1-induced activation of renal fibroblasts (Western blot). The assay is classed as cell-based, rat. The note with it: 10 μM, 24 hours. As to the method:
FIG. 2A, FIG. 2B, FIG. 2C, FIG. 2D, FIG. 2E, FIG. 2F, FIG. 2G-1, and FIG. 2G-2 display how WRG-28 and Av suppress TGF-β1-induced fibroblasts activation and the differentiation of pericytes into myofibroblasts. […] Each bar represents the mean #SEM. […] The protein levels of collagen 1a1 and α-SMA were assessed using Western blot analysis under various conditions. […] Each bar represents mean±SEM. […] The images were acquired using a confocal microscope (Olympus, MPE). FIG. 2G-1 and FIG. 2G-2 display the measurement of angles between collagen fibers and the cell membrane, conducted using Image J. At least five different images from each condition were analyzed. Each bar represents mean±SEM. […]
(§1) Cell lysates were harvested in RIPA buffer (150 mM NaCl, 1 mM EGTA, 50 mM Tris pH 7.4, 10% glycerol, 1% Triton X-100, 1% sodium deoxycholate, 0.1% SDS, and protease inhibitor cocktail) and collected from culture dish with cell scrapers. […] The protein expression levels were assessed by specific primary antibodies, including antibodies against phosphotyrosine (clone 4G10; Millipore), DDR2 (R&D), α-SMA (Sigma), Collagen 1a1 (Boster), E-cadherin (BD Biosciences), SGLT2 (Proteintech), NHE1 (Novus) and β-actin (Clone C4, Millipore), followed by incubating with secondary antibodies conjugated with HRP and detected by ECL kit (Thermo Scientific). […]

Assay [1] deals with human cardiac fibroblast (HCF). Kind of assay: TGF-β1-induced activation of human cardiac fibroblasts (Western blot). The assay is classed as cell-based. The settings on record: 10 μM co-treatment, 24 hours. As to the method: Cells were co-treated with various compounds (10 μM) and TGF-β1 for 24 hours. Following this, cell lysates were harvested, and the protein expression was assessed by Western blot analysis. FIG. 3D depicts the examination of TGF-β1-induced fibronectin deposition and α-SMA expression in HCF treated with 10 μM of DMSO, BTP2, WRG-28, or Av through immunofluorescence staining. The images were captured using a confocal microscope, the Olympus FV-1000. FIG. 3E, FIG. 3F, and FIG. 3G illustrate the assessment of CRAC channel activity in HCF, MRC5, and rat HSC-T6. These cells were pretreated with 10 μM of BTP2, WRG-28, or Av for 45 min. The evaluation included measuring the second peak of each calcium wave and the rate of entry. […]
as §1

Assay [2] concerns UUO-induced renal fibrosis. Kind of assay: Unilateral ureteral obstruction (UUO) renal fibrosis model. The settings on record: for UUO-induced downregulation of E-cadherin (kidney, Western blot) / UUO-induced upregulation of integrin β1, DDR2, collagen 1a1, and α-SMA (kidney, Western blot) / area positively stained with fibrillar collagen (Sirius red) / histology: UUO-induced tubular dilation and interstitial expansion (H&E): 5 mg/kg/day for 7 days; for apoptotic tubular cells (TUNEL): 5 mg/kg/day for 7 days during ureter obstruction. The class given is in vivo, mouse. Here is the method: Surgical ligation was performed on the left ureter of 7-to-8-week-old male mice using a nylon surgical suture. Subsequently, the mice were treated with 5 mg/kg/day of DMSO (control), BTP2, WRG-28, or Av for 7 days. […] FIG. 5B illustrates the evaluation of fibrillar collagen expression levels via Sirius red staining. FIG. 5C presents the measurement of the Sirius red-positive area using Image J. FIG. 5D, FIG. 5E, FIG. 5F, FIG. 5G, and FIG. 5H depict the protein levels of integrin β1, DDR2, Collagen 1a1, α-SMA, and E-cadherin in kidney samples from mice treated with 5 mg/kg/day of BTP2 (FIG. 5D), WRG-28 (FIG. 5F), or Av (FIG. 5H), which were assessed by Western blot analysis. […] FIG. 5K illustrates the evaluation of apoptotic cells from 5-10 pictures in each condition.
Cell lysates were harvested in RIPA buffer (150 mM NaCl, 1 mM EGTA, 50 mM Tris pH 7.4, 10% glycerol, 1% Triton X-100, 1% sodium deoxycholate, 0.1% SDS, and protease inhibitor cocktail) and collected from culture dish with cell scrapers. For tissue sample preparation, half of the kidney tissues were cut into ˜1 mm3 and then put into 500 μl RIPA buffer in 2 ml tubes. Mechanical homogenizers by agitating beads at high speeds for 30 seconds were used for tissue protein extraction. Protein samples in supernatants were collected after centrifuging the tubes at 10000 g for 10 min at 4° C. 20-30 μg protein samples were resolved by 7.5% or 10% SDS-PAGE. The protein expression levels were assessed by specific primary antibodies, including antibodies against phosphotyrosine (clone 4G10; Millipore), DDR2 (R&D), α-SMA (Sigma), Collagen 1a1 (Boster), E-cadherin (BD Biosciences), SGLT2 (Proteintech), NHE1 (Novus) and β-actin (Clone C4, Millipore), followed by incubating with secondary antibodies conjugated with HRP and detected by ECL kit (Thermo Scientific).
Procedures involving animal subjects have been approved by the Institutional Animal Care and Use Committee (IACUC) at the National Laboratory Animal Center. 7-8 weeks old male C57BL/6 mice were obtained from the animal center. Unilateral ureteral obstruction (UUO) was performed by ligating the left ureter and mice were treated with 5 mg/kg/day DMSO, BTP2, WRG-28, or Av for 7 days after ligation. After 7 days, mice were sacrificed and the kidneys were removed and used for analysis. One-quarter of the kidney was fixed by 4% paraformaldehyde and embedded in paraffin or one-quarter of the kidney was embedded in the Tissue-Tek OCT compound. Half of the kidneys are used for protein analysis. In the reversible unilateral ureteral obstruction (RUUO) experiment, the ligated-left ureter was re-connected to the bladder after UUO surgery for 7 days. The compounds, WRG-28 and Av, were injected during ligation (7*/15d) or after ligation was released (7/15*d). To assess the kidney function, the right ureter was ligated the day before leaving mice in the metabolic cage. The urine and blood were collected for blood urea nitrogen (BUN) and creatinine (CRE) test.
Deparaffinize and rehydrate tissue slides were immersed in filtered Harris Hematoxylin for 10 seconds. After extensively washing in tap water, samples were immersed in Alcoholic-Eosin for 2 minutes. The tissue was then dehydrated and mounted by resinous medium and glass coverslips.
Deparaffinize and rehydrate tissue slides were stained with Picrosirius red for one hour, followed by an extensive wash with acidified water. After dehydration through 3 runs of change of 95% ethanol, 2 runs of change of 100% ethanol, and 3 runs of change of xylene, tissue slides were mounted by resinous mounting medium and glass coverslips. […]
The TUNEL assay kit was purchased from Abcam (ab206386). The procedure was carried out following the manufactory's instructions. […]

“Also recorded” adds a separate entry of the source.

Take `CCNS(=O)(=O)c1ccc(COc2ccc3nc4ccc(=O)cc-4oc3c2)cc1` [WRG-28]: the “TGF-β1-induced upregulation of collagen 1a1 and α-SMA” value in the assay with NRK49F cells is given as “significantly suppressed”. Moreover, in assay [1], the “upregulation of α-SMA induced by TGF-β1” value is on record as “suppressed”. Besides, in assay [2], the “UUO-induced downregulation of E-cadherin (kidney, Western blot)” value was “reversing”; the “UUO-induced upregulation of integrin β1, DDR2, collagen 1a1, and α-SMA (kidney, Western blot)” value is recorded as “suppressed”; the “area positively stained with fibrillar collagen (Sirius red)” value is listed as “significantly reduced”; the “histology: UUO-induced tubular dilation and interstitial expansion (H&E)” value is listed as “appeared to mitigate the effects caused by UUO”. Also, in assay [2], the “apoptotic tubular cells (TUNEL)” value was “notably reduced; also recorded: significantly reduced”.
`Cc1nnsc1C(=O)Nc1ccc(-n2nc(C(F)(F)F)cc2C(F)(F)F)cc1` [BTP2]: the “TGF-β1-induced upregulation of collagen 1a1 and α-SMA” value in the assay on NRK49F cells is “significantly suppressed”. In addition, the “upregulation of α-SMA induced by TGF-β1” value in assay [1] is “suppressed”. In assay [2], the “UUO-induced downregulation of E-cadherin (kidney, Western blot)” value is given as “reversing”; the “UUO-induced upregulation of integrin β1, DDR2, collagen 1a1, and α-SMA (kidney, Western blot)” value is given as “suppressed”; the “area positively stained with fibrillar collagen (Sirius red)” value is “significantly reduced”; the “histology: UUO-induced tubular dilation and interstitial expansion (H&E)” value was “appeared to mitigate the effects caused by UUO”. In assay [2], the “apoptotic tubular cells (TUNEL)” value is on record as “notably reduced”.
